Experimental data reported in patent publication US11912668B2, “GCN2 and perk kinase inhibitors and methods of use thereof” (Deciphera Pharmaceuticals, LLC, priority 2020, dated 2024).

Columns and labels:
[1] = test system: phospho-GCN2 (Thr899) in HCT116 colorectal cancer cells; experiment: HCT116 amino acid starved (-AA) phospho-GCN2 assay (Western blot); type: cell-based; conditions: Homo sapiens, HCT-116, 4 h, read-out: HCT116-AA pGCN2 Western Blot
Experimental: (§1) HCT116 colorectal cancer cells (catalog #CCL-247) were obtained from the American Type Culture Collect (ATTC, Manassas, VA). Briefly, cells were grown in RPMI 1640 supplemented with 10% heat inactivated fetal bovine serum (Invitrogen, Carlsbad, CA) and 1% Penicillin/Streptomycin/L-Glutamine at 37° C., 5% CO2, and 95% humidity. Cells were expanded until reaching 70-95% confluency at which point they were subcultured or harvested for assay use. Cells were seeded in 12-well culture plate at five hundred thousand cells per well in 1 mL complete growth medium and incubated overnight at 37° C., 5% CO2, and 95% humidity. The next day each well was replaced with 1 mL Earle's Balanced Salt Solution (EBSS, Invitrogen, Carlsbad, CA) supplemented with 10% Dialyzed Fetal Bovine Serum, 5.5 mM Glucose, 1% Penicillin/Streptomycin and 1% Vitamin solution (thermo #11120052). A serial dilution of test compound was dispensed into well. Plates were incubated for 4 h at 37° C., 5% CO2, and 95% humidity. At the end of the incubation, cells were washed with PBS supplemented with 1× Halt protease inhibitor, 1× Halt phosphatase inhibitor, 1× Sigma phosphatase inhibitor cocktail 2 and 1×EDTA and then lysed with M-PER Mammalian Protein Extraction Reagent supplemented with 3× of the inhibitor mix as described above. Cell lysates were sonicated with water bath sonicator (Qsonica, Newtown, CT) and supernatants were boiled with SDS buffer and reducing agent. Western blot was performed on each lysate to quantify phospho-GCN2 (Thr899), total GCN2, ATF4 and beta-Actin. Membranes were imaged with LI-COR Odyssey CLx Imaging System (LI-COR, Lincoln, NE). Data were analyzed using GraphPad Prism software (GraphPad, San Diego, CA) to calculate IC50 values.

[2] = test system: ATF4 in CCRF-CEM leukemia cells (PERK); experiment: CCRF-CEM TG ATF4 ELISA, phenotypic assay for cellular inhibition of PERK preactivated by thapsigargin; type: cell-based; conditions: Homo sapiens; Thapsigargin (1 μM) stimulated CCRF-CEM cells
Experimental: CCRF-CEM leukemia cells (catalog #CCL-116) were obtained from the American Type Culture Collection (ATTC, Manassas, VA). Briefly, cells were grown in RPMI-1640 medium supplemented with 10% heat-inactivated fetal bovine serum (Invitrogen, Carlsbad, CA) and 1% Penicillin/Streptomycin/L-Glutamine at 37° C., 5% CO2, and 95% humidity. Cells were expanded until reaching one million cells per mL at which time they were subcultured or harvested for assay use. One million five hundred thousand cells per well in 1 mL complete growth medium were dispensed into 12-well plates and incubated overnight. A serial dilution of test compound was added and cells were incubated at 37° C., 5% CO2, and 95% for three hours, then 1 μM thapsigargin was added and cells were incubated for an additional hour at 37° C., 5% CO2, and 95%. Cells were lysed then ATF4 levels were measured using an ELISA assay (Proteintech, Rosemont, IL). Absorbance was measured at 450 nm and 544 nM using a Synergy2 or equivalent reader (Biotek, Winooski VT). Data was analyzed using PRISM software (Graphpad, San Diego, CA) to calculate IC50 values.

CCRF-CEM leukemia cells = experiment: CCRF-CEM ASNase cell proliferation assay, phenotypic assay for cellular inhibition of GCN2; type: cell-based; conditions: Homo sapiens; ASNase treated CCRF-CEM cells, 1 mU/mL ASNase, 72 h
Experimental: CCRF-CEM leukemia cells (catalog #CCL-116) were obtained from the American Type Culture Collect (ATTC, Manassas, VA). Cells were grown in RPMI-1640 medium supplemented with 10% heat-inactivated fetal bovine serum (Invitrogen, Carlsbad, CA) and 1% Penicillin/Streptomycin/L-Glutamine at 37° C., 5% CO2, and 95% humidity. Cells were expanded until reaching one million cells per mL at which time they are subcultured or harvested for assay use. Ten thousand cells per well in 200 μL RPMI-1640 supplemented with 10% heat-inactivated fetal bovine serum and 1% Penicillin/Streptomycin were dispensed into a 96-well black clear bottom plate. A serial dilution of test compound and 1 mU/mL ASNase was added in triplicate and plates were incubated for 72 h at 37° C., 5% CO2, and 95% humidity. At the end of the incubation, 40 μL of a […] solution of resazurin (Sigma, St. Louis, MO) in PBS was added to each well of the plate and plates were incubated for an additional 6 h at 37° C., 5% CO2, and 95% humidity. Plates were read on a Synergy2 or equivalent reader (Biotek, Winooski VT) using an excitation of 540 nm and an emission of 600 nm. Data was analyzed using GraphPad Prism software (GraphPad, San Diego, CA) to calculate IC50 values.

[3] = test system: ATF4 in HCT116 colorectal cancer cells; experiment: HCT116 amino acid starved (-AA) ATF4 assay (Western blot); type: cell-based; conditions: Homo sapiens, HCT-116, 4 h
Experimental: as §1

GCN2 kinase = GCN2 kinase (Homo sapiens (Human), UniProt Q9P2K8); experiment: Biochemical assay for GCN2 (TR-FRET kinase activity assay); conditions: 1 mM ATP, 3-hour incubation
How it was run: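 TR-FRET assay with 2 nM GCN2, 130 nM GFP-eIF2α substrate, 0.2 mg/mL E. coli tRNA and 1 mM ATP; compounds (0.5% DMSO) reacted 3 h. Stopped with 20 mM EDTA plus 2 nM Tb-anti-peIF2α (pSer52), 60 min RT; 520/490 ratio converted to % inhibition, IC50 from four-parameter fit.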

PERK kinase = PERK kinase (Homo sapiens (Human), UniProt Q9NZJ5); experiment: Biochemical assay for PERK (coupled pyruvate kinase/lactate dehydrogenase assay); conditions: 1 mM ATP, rate from 2-3 h time frame
How it was run: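 Coupled pyruvate kinase/lactate dehydrogenase readout of ATP hydrolysis via NADH oxidation (A340), 10 nM PERK, 0.25 mg/mL myelin basic protein, 1 mM ATP, pH 7.5 Tris/MgCl2 buffer, 1% DMSO. Absorbance followed 6 h at 30° C; rate from the 2-3 h window, normalised to no-compound and known-inhibitor controls, IC50 fitted.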

Chain of PERK kinase (Q9NZJ5 other isoform, or with tags, fused parts or gaps): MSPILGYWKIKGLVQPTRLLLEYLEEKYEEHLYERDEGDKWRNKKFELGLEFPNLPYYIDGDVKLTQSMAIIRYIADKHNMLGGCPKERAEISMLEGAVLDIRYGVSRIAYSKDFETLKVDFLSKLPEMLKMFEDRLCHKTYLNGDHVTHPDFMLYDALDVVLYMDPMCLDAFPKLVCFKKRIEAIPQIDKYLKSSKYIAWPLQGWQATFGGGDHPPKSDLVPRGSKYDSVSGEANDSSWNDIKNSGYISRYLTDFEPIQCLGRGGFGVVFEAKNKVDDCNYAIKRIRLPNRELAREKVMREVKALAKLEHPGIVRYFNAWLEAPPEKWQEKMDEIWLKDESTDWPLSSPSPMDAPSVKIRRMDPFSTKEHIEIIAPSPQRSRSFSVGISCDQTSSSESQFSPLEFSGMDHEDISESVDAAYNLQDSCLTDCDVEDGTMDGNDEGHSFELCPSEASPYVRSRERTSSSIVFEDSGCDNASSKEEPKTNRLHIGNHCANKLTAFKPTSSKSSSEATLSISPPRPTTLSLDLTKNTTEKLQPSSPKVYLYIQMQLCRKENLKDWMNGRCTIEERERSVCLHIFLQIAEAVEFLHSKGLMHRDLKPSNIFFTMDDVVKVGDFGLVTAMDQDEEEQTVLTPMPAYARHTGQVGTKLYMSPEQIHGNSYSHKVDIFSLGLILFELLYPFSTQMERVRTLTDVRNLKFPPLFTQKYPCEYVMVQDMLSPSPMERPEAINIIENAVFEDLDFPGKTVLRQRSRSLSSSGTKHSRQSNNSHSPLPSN
Chain of GCN2 kinase (Q9P2K8 whole entry): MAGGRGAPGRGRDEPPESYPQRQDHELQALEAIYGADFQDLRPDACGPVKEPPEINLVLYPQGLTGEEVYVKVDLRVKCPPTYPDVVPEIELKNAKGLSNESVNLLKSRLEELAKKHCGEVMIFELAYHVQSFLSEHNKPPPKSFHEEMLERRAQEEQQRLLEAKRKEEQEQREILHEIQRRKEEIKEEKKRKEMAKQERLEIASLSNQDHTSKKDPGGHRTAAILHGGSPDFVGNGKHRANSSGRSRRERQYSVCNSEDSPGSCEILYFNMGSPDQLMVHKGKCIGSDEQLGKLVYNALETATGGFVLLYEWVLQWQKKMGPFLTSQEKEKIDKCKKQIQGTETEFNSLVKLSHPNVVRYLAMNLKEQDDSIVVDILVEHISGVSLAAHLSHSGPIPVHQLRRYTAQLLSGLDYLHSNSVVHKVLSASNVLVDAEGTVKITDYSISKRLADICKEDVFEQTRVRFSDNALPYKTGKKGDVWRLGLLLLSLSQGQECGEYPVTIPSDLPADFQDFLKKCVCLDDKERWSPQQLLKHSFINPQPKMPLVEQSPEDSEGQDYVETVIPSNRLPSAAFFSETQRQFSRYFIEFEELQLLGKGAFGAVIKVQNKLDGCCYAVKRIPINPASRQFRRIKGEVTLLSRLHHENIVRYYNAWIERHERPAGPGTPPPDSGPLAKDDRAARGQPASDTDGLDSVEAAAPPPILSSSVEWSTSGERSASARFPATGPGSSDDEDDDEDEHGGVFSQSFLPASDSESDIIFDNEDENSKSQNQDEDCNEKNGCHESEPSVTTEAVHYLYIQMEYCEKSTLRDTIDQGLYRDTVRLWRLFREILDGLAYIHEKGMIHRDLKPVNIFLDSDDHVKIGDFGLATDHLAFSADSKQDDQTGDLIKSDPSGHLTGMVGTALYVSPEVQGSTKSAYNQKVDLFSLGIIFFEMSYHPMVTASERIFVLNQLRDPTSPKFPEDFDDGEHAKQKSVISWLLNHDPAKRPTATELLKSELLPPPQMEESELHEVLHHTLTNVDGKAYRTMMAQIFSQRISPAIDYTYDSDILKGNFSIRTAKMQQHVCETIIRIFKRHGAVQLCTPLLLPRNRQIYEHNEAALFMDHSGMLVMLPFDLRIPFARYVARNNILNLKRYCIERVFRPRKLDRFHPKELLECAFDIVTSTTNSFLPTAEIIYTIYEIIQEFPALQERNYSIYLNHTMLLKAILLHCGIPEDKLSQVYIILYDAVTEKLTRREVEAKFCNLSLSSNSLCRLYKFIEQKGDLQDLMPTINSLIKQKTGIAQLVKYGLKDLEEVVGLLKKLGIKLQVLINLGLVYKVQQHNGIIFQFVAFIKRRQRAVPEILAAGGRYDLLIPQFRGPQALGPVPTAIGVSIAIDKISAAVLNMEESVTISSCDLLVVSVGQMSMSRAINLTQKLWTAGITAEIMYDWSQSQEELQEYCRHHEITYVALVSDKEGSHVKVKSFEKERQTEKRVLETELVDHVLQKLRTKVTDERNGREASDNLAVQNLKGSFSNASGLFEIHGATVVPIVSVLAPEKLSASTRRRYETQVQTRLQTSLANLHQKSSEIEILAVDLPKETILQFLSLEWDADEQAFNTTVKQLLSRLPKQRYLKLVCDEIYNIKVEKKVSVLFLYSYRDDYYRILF

Row | SMILES | IC50 [1] [nM] | IC50 [2] [nM] | IC50 (CCRF-CEM leukemia cells) [nM] | IC50 [3] [nM] | IC50 (GCN2 kinase) [nM] | IC50 (PERK kinase) [nM]
1 | CNc1cc2nc(C)c(-c3cccc(NS(=O)(=O)c4cc(Cl)cc(CO)c4Cl)c3F)cc2cn1 [Example 45] | ≤ 100 | 100 to 500 | ≤ 100 | ≤ 100 | ≤ 100 | ≤ 100
2 | CNc1ncc2cc(-c3cc(NS(=O)(=O)c4cc(Cl)cnc4OC)cc(F)c3F)c(C)nc2n1 [Example 48] | ≤ 100 | 1000 to 10000 | 100 to 500 | ≤ 100 | ≤ 100 | 100 to 500
3 | CNc1ncc2cc(-c3cccc(NS(=O)(=O)c4cc(Cl)cnc4NC)c3F)ccc2n1 [Example 50] | ≤ 100 | 1000 to 10000 | ≤ 100 | ≤ 100 | ≤ 100 | ≤ 100
4 | CNc1ncc2cc(-c3cccc(NS(=O)(=O)c4cc(Cl)cnc4OC)c3C)c(C)nc2n1 [Example 51] | ≤ 100 | 1000 to 10000 | ≤ 100 | ≤ 100 | ≤ 100 | 100 to 500
5 | CNc1ncc2cc(-c3cc(NS(=O)(=O)c4cc(Cl)cnc4OC)ccc3C)c(C)nc2n1 [Example 53] | ≤ 100 | 1000 to 10000 | ≤ 100 | ≤ 100 | ≤ 100 | 100 to 500
6 | CNc1cc2ncc(-c3cccc(NS(=O)(=O)c4cc(Cl)cnc4OC)c3F)cc2cn1 [Example 56] | ≤ 100 | 500 to 1000 | ≤ 100 | ≤ 100 | 100 to 500 | ≤ 100
7 | CNc1ncc2cc(-c3cc(F)cc(NS(=O)(=O)c4cc(Cl)cc(CO)c4Cl)c3)c(NC)nc2n1 [Example 57] | ≤ 100 | 1000 to 10000 | ≤ 100 | ≤ 100 | ≤ 100 | ≤ 100
8 | COc1ncc(Cl)cc1S(=O)(=O)Nc1cccc(-c2cnc3nc(Nc4cnn(C)c4)ncc3c2)c1 [Example 59] | ≤ 100 | 1000 to 10000 | ≤ 100 | ≤ 100 | ≤ 100 | 100 to 500
9 | CNc1ncc2cc(-c3cccc(NS(=O)(=O)c4cc(Cl)cnc4OC)c3F)c(N)nc2n1 [Example 61] | ≤ 100 | 100 to 500 | ≤ 100 | ≤ 100 | ≤ 100 | ≤ 100
10 | CNc1ncc2cc(-c3cccc(NS(=O)(=O)c4cc(Cl)cnc4OC)c3Cl)ccc2n1 [Example 62] | ≤ 100 | 1000 to 10000 | ≤ 100 | 100 to 500 | ≤ 100 | ≤ 100
11 | CNc1ncc2cc(-c3cc(F)cc(NS(=O)(=O)c4cc(Cl)cnc4OC)c3)c(N)nc2n1 [Example 63] | ≤ 100 | 1000 to 10000 | ≤ 100 | ≤ 100 | ≤ 100 | ≤ 100
12 | CNc1ncc2cc(-c3cccc(NS(=O)(=O)c4cc(Cl)cnc4OC)c3)c(N)nc2n1 [Example 64] | ≤ 100 | 1000 to 10000 | ≤ 100 | ≤ 100 | ≤ 100 | 100 to 500
13 | CNc1ncc2cc(-c3cccc(NS(=O)(=O)c4cc(Cl)cnc4OC)c3F)c(OC)nc2n1 [Example 66] | ≤ 100 | 1000 to 10000 | ≤ 100 | ≤ 100 | ≤ 100 | ≤ 100
14 | CNc1ncc2cc(-c3cccc(NS(=O)(=O)c4cc(Cl)cnc4OC)c3Cl)c(C)nc2n1 [Example 67] | ≤ 100 | 1000 to 10000 | ≤ 100 | ≤ 100 | ≤ 100 | ≤ 100
15 | CNc1ncc2cc(-c3cc(NS(=O)(=O)c4cc(Cl)cnc4OC)ccc3Cl)c(C)nc2n1 [Example 68] | ≤ 100 | 1000 to 10000 | ≤ 100 | ≤ 100 | ≤ 100 | ≤ 100
16 | CNc1ncc2cc(-c3cccc(NS(=O)(=O)c4cc(Cl)cc(C(C)(C)O)c4Cl)c3F)c(NC)nc2n1 [Example 74] | ≤ 100 | 1000 to 10000 | ≤ 100 | ≤ 100 | 100 to 500 | 100 to 500
17 | COc1ncc(Cl)cc1S(=O)(=O)Nc1cccc(-c2cc3cnc(N)cc3nc2C)c1F [Example 77] | ≤ 100 | 100 to 500 | ≤ 100 | ≤ 100 | ≤ 100 | ≤ 100
18 | CNc1cc2nc(C)c(-c3cccc(NS(=O)(=O)c4cc(Cl)cnc4NC)c3F)cc2cn1 [Example 78] | ≤ 100 | 500 to 1000 | ≤ 100 | ≤ 100 | ≤ 100 | ≤ 100
19 | COc1ncc(Cl)cc1S(=O)(=O)Nc1cccc(-c2cc3cnc(NC(C)=O)cc3nc2C)c1F [Example 84] | ≤ 100 | 100 to 500 | ≤ 100 | ≤ 100 | ≤ 100 | ≤ 100
20 | COc1ncc(Cl)cc1S(=O)(=O)Nc1cccc(-c2cnc3cc(N)ncc3c2)c1F [Example 85] | ≤ 100 | 1000 to 10000 | ≤ 100 | ≤ 100 | ≤ 100 | ≤ 100
21 | COc1ncc(Cl)cc1S(=O)(=O)Nc1cc(F)cc(-c2cc3cnc(Nc4cnn(C)c4)nc3nc2C)c1 [Example 87] | ≤ 100 | 1000 to 10000 | ≤ 100 | ≤ 100 | ≤ 100 | ≤ 100
22 | COc1ncc(Cl)cc1S(=O)(=O)Nc1cccc(-c2cc3cnc(Nc4cnn(C)c4)nc3nc2C)c1F [Example 88] | ≤ 100 | 100 to 500 | ≤ 100 | ≤ 100 | ≤ 100 | ≤ 100
23 | CNc1ncc2cc(-c3cccc(NS(=O)(=O)c4cc(Cl)cnc4OC)c3OC)c(C)nc2n1 [Example 89] | ≤ 100 | 1000 to 10000 | 100 to 500 | 100 to 500 | 100 to 500 | ≤ 100
24 | CNc1ncc2cc(-c3cccc(NS(=O)(=O)c4cc(Cl)cnc4NC)c3F)c(C)nc2n1 [Example 90] | ≤ 100 | 1000 to 10000 | ≤ 100 | ≤ 100 | ≤ 100 | ≤ 100
